Assay results as given in patent publication US20170298052A1, “SUBSTITUTED OXOPYRIDINE DERIVATIVES” (BAYER PHARMA AKTIENGESELLSCHAFT, priority 2014, published 2017).

Experiments:
[1] = molecular target: T1, human factor XIa (Homo sapiens, UniProt P03951); experiment: Measurement of FXIa inhibition (fluorogenic peptide substrate, AMC cleavage); assay type: biochemical; settings: factor XIa from Kordia 0.45 nM; substrate Boc-Glu(OBzl)-Ala-Arg-AMC; 30 min at 22° C.
T1 construct: purchased Kordia
Protocol: (§1) The factor XIa inhibition of the substances according to the invention is determined using a biochemical test system which utilizes the reaction of a peptidic factor XIa substrate to determine the enzymatic activity of human factor XIa. Here, factor XIa cleaves from the peptic factor XIa substrate the C-terminal aminomethylcoumarin (AMC), the fluorescence of which is measured. The determinations are carried out in microtitre plates.
1 μl of the diluted substance solutions is placed into each of the wells of white microtitre plates from Greiner (384 wells). […] After 15 min of incubation, the enzyme reaction is started by addition of 20 μl of the factor XIa substrate Boc-Glu(OBzl)-Ala-Arg-AMC dissolved in assay buffer (10 μM in assay buffer) from Bachem, the mixture is incubated at room temperature (22° C.) for 30 min and fluorescence is then measured (excitation: 360 nm, emission: 460 nm). The measured emissions of the test batches with test substance are compared to those of control batches without test substance (only dimethyl sulphoxide instead of test substance in dimethyl sulphoxide), and IC50 values are calculated from the concentration/activity relationships.

[2] = molecular target: human plasma kallikrein (Homo sapiens, UniProt P03952); experiment: Determination of the plasma kallikrein activity (fluorogenic peptide substrate, AMC cleavage); assay type: biochemical; settings: plasma kallikrein from Kordia 0.6 nM; substrate H-Pro-Phe-Arg-AMC; 30 min at 22° C.; read-out: IC50 [nM] (Table B, plasma kallikrein inhibition)
Protocol: as §1, with “To determine the plasma kallikrein” for “The factor XIa”, “invention,” for “invention is determined using”, “system is used” for “system”, “plasma kallikrein” for “factor XIa”, “plasma kallikrein.” for “factor XIa.”
Test substances are dissolved in dimethyl sulphoxide and serially diluted in dimethyl sulphoxide (3000 μM to 0.0078 μM; resulting final concentrations in the test: 50 μM to 0.00013 μM). 1 μl of the diluted substance solutions is placed into each of the wells of white microtitre plates from Greiner (384 wells). 20 μl of assay buffer (50 mM Tris/HCl pH 7.4; 100 mM sodium chloride solution; 5 mM of calcium chloride solution; 0.1% of bovine serum albumin) and 20 μl of plasma kallikrein from Kordia (0.6 nM in assay buffer) are then added successively. After 15 min of incubation, the enzyme reaction is started by addition of 20 μl of the substrate H-Pro-Phe-Arg-AMC dissolved in assay buffer (10 μM in assay buffer) from Bachem, the mixture is incubated at room temperature (22° C.) for 30 min and fluorescence is then measured (excitation: 360 nm, emission: 460 nm). The measured emissions of the test batches with test substance are compared to those of control batches without test substance (only dimethyl sulphoxide instead of test substance in dimethyl sulphoxide), and IC50 values are calculated from the concentration/activity relationships.

Chain of human plasma kallikrein (P03952 391-638 limits assumed): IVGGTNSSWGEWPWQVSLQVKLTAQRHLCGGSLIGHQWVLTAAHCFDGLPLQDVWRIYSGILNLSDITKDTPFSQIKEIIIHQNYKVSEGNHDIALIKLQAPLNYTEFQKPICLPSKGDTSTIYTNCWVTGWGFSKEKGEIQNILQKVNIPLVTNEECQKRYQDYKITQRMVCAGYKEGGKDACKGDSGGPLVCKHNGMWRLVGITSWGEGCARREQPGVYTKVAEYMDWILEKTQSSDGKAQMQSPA
Chain of human plasma kallikrein (P03952 20-390 partner limits assumed): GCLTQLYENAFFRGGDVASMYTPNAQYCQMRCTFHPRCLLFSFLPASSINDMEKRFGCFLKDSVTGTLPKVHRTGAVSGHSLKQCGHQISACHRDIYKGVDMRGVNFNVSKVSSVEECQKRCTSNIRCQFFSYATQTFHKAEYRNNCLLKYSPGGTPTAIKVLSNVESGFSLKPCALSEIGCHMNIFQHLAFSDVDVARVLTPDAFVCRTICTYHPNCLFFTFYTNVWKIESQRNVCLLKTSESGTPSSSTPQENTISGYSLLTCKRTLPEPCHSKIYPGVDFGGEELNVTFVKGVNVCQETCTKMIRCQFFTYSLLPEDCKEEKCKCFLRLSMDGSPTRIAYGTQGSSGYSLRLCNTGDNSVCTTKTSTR
T1 sequence (P03951 388-625 limits assumed): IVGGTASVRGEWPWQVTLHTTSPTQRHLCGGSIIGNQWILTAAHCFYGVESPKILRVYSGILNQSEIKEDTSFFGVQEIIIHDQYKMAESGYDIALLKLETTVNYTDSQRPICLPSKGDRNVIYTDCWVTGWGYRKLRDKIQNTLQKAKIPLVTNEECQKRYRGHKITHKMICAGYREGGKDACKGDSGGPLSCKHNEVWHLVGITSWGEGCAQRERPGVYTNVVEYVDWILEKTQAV
T1 sequence (P03951 19-387 partner limits assumed): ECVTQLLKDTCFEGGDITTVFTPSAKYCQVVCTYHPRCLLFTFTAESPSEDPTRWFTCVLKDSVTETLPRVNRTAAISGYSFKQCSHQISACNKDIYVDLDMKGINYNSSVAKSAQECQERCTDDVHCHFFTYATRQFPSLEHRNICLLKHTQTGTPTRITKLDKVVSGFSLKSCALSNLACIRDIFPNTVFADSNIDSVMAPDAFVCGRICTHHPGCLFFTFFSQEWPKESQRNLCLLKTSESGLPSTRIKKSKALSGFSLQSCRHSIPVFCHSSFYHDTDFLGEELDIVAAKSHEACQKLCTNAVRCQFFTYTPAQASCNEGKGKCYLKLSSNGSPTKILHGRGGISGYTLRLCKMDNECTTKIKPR

Row | Compound | IC50 [1] [nM] | IC50 [2] [nM]
1 | COc1cn(C(Cc2ccn(C)n2)C(=O)Nc2ccc(C(N)=O)c(F)c2)c(=O)cc1-c1cc(C)ccc1C#N (racemic) [Example 43, 4-({2-[4-(2-Cyano-5-methylphenyl)-5-methoxy-2-oxopyridin-1(2H)-yl]-3-(1-methyl-1H-pyrazol-3-yl)propanoyl}amino)-2-fluorobenzamide] | 12 | 8.3
2 | COc1cc(NC(=O)C(Cc2ccn(C)n2)n2cc(OC)c(-c3cc(Cl)ccc3C#N)cc2=O)ccc1C(N)=O (racemic) [Example 46, 4-({2-[4-(5-Chloro-2-cyanophenyl)-5-methoxy-2-oxopyridin-1(2H)-yl]-3-(1-methyl-1H-pyrazol-3-yl)propanoyl}amino)-2-methoxybenzamide] | 8.9 | 2.4
3 | COCCC(C(=O)Nc1ccc(C(N)=O)c(F)c1)n1cc(OC)c(-c2cc(C)ccc2C#N)cc1=O (racemic) [Example 49, 4-({2-[4-(2-Cyano-5-methylphenyl)-5-methoxy-2-oxopyridin-1(2H)-yl]-4-methoxybutanoyl}amino)-2-fluorobenzamide] | 28 | 27
4 | COCCC(C(=O)Nc1ccc(C(N)=O)c(F)c1)n1cc(OC)c(-c2cc(C)ccc2C#N)cc1=O (single isomer, unassigned) [Example 24, 4-({2-[4-(2-Cyano-5-methylphenyl)-5-methoxy-2-oxopyridin-1(2H)-yl]-4-methoxybutanoyl}amino)-2-fluorobenzamide] | 27 | 25
5 | COc1cn(C(Cc2ccncc2)C(=O)Nc2ccc(C(N)=O)c(F)c2)c(=O)cc1-c1cc(Cl)ccc1C#N (single isomer, unassigned) [Example 29, 4-({2-[4-(5-Chloro-2-cyanophenyl)-5-methoxy-2-oxopyridin-1(2H)-yl]-3-(pyridin-4-yl)propanoyl}amino)-2-fluorobenzamide] | 5.1 | 2.7
6 | COc1cn(C(Cc2cnco2)C(=O)Nc2ccc(C(N)=O)c(F)c2)c(=O)cc1-c1cc(Cl)ccc1C#N (single isomer, unassigned) [Example 45, 4-({2-[4-(5-Chloro-2-cyanophenyl)-5-methoxy-2-oxopyridin-1(2H)-yl]-3-(1,3-oxazol-5-yl)propanoyl}amino)-2-fluorobenzamide] | 6.4 | 4
7 | N#Cc1ccc(Cl)cc1-c1cc(=O)n(C(Cc2cnco2)C(=O)Nc2ccc(C(N)=O)c(F)c2)cc1OC(F)F (stereo not drawn) [Example 1] | 240 | 490
8 | N#Cc1ccc(Cl)cc1-c1cc(=O)n(C(Cc2cocn2)C(=O)Nc2ccc(C(N)=O)c(F)c2)cc1Cl (stereo not drawn) [Example 2] | 190 | 260
9 | COCCC(C(=O)Nc1ccc(C(N)=O)c(F)c1)n1cc(Cl)c(-c2cc(Cl)ccc2C#N)cc1=O (stereo not drawn) [Example 6] | 47 | 110
10 | CCC(C(=O)Nc1ccc(C(=O)NC)c(F)c1)n1cc(OC)c(-c2cc(Cl)ccc2C#N)cc1=O (stereo not drawn) [Example 8] | 12 | 30
11 | COc1cn(C(Cc2cccnc2)C(=O)Nc2ccc(C(N)=O)c(F)c2)c(=O)cc1-c1cc(Cl)ccc1C#N (stereo not drawn) [Example 9] | 11 | 6
12 | N#Cc1ccc(Cl)cc1-c1cc(=O)n(C(Cc2ccccn2)C(=O)Nc2ccc(C(N)=O)c(F)c2)cc1OC(F)F (stereo not drawn) [Example 11] | 160 | 490
13 | COc1cn(C(Cc2ccccn2)C(=O)Nc2ccc(C(N)=O)c(F)c2)c(=O)cc1-c1cc(Cl)ccc1C#N (stereo not drawn) [Example 12] | 11 | 10
14 | CNC(=O)c1ccc(NC(=O)C(C[C@@H]2CCCCO2)n2cc(Cl)c(-c3cc(Cl)ccc3C#N)cc2=O)cc1F (stereo partly drawn) [Example 15] | 28 | 260
15 | COc1cn(C(Cc2ccccn2)C(=O)Nc2ccc(C(N)=O)c(F)c2)c(=O)cc1-c1cc(Cl)ccc1F (stereo not drawn) [Example 17] | 290 | 230

Second part, the compound after the results:

Row | IC50 [1] [nM] | IC50 [2] [nM] | Compound
16 | 19 | 12 | CNC(=O)c1ccc(NC(=O)C(Cc2ccn(C)n2)n2cc(OC)c(-c3cc(C)ccc3C#N)cc2=O)cc1F (racemic) [Example 44, 4-({2-[4-(2-Cyano-5-methylphenyl)-5-methoxy-2-oxopyridin-1(2H)-yl]-3-(1-methyl-1H-pyrazol-3-yl)propanoyl}amino)-2-fluoro-N-methylbenzamide]
17 | 32 | 24 | CNC(=O)c1ccc(NC(=O)C(Cc2coc(C)n2)n2cc(OC)c(-c3cc(Cl)ccc3C#N)cc2=O)cc1F (racemic) [Example 47, 4-({2-[4-(5-Chloro-2-cyanophenyl)-5-methoxy-2-oxopyridin-1(2H)-yl]-3-(2-methyl-1,3-oxazol-4-yl)propanoyl}amino)-2-fluoro-N-methylbenzamide]
18 | 15 | 7.7 | COCCC(C(=O)Nc1ccc(C(N)=O)c(OC)c1)n1cc(OC)c(-c2cc(Cl)ccc2C#N)cc1=O (racemic) [Example 48, 4-({2-[4-(5-Chloro-2-cyanophenyl)-5-methoxy-2-oxopyridin-1(2H)-yl]-4-methoxybutanoyl}amino)-2-methoxybenzamide]
19 | 6.6 | 4.8 | COc1cn(C(Cc2ccccn2)C(=O)Nc2ccc(C(N)=O)c(F)c2)c(=O)cc1-c1cc(Cl)ccc1C#N (single isomer, unassigned) [Example 28, 4-({2-[4-(5-Chloro-2-cyanophenyl)-5-methoxy-2-oxopyridin-1(2H)-yl]-3-(pyridin-2-yl)propanoyl}amino)-2-fluorobenzamide]
20 | 43 | 33 | COc1cn(C(Cc2cocn2)C(=O)Nc2ccc(C(N)=O)c(F)c2)c(=O)cc1-c1cc(Cl)ccc1C#N (stereo not drawn) [Example 3]
21 | 52 | 140 | N#Cc1ccc(Cl)cc1-c1cc(=O)n(C(Cc2cnco2)C(=O)Nc2ccc(C(N)=O)c(F)c2)cc1Cl (stereo not drawn) [Example 4]
22 | 14 | 14 | COc1cn(C(Cc2cnco2)C(=O)Nc2ccc(C(N)=O)c(F)c2)c(=O)cc1-c1cc(Cl)ccc1C#N (stereo not drawn) [Example 5]
23 | 25 | 36 | CCC(C(=O)Nc1ccc(C(N)=O)c(F)c1)n1cc(OC)c(-c2cc(Cl)ccc2C#N)cc1=O (stereo not drawn) [Example 7]
24 | 9 | 7 | COc1cn(C(Cc2ccncc2)C(=O)Nc2ccc(C(N)=O)c(F)c2)c(=O)cc1-c1cc(Cl)ccc1C#N (stereo not drawn) [Example 10]
25 | 63 | 110 | N#Cc1ccc(Cl)cc1-c1cc(=O)n(C(Cc2ccccn2)C(=O)Nc2ccc(C(N)=O)c(F)c2)cc1Cl (stereo not drawn) [Example 13]
26 | 25 | 210 | N#Cc1ccc(Cl)cc1-c1cc(=O)n(C(C[C@@H]2CCCCO2)C(=O)Nc2ccc(C(N)=O)c(F)c2)cc1Cl (stereo partly drawn) [Example 14]
27 | 200 | 350 | COc1cn(C(Cc2cc(C)no2)C(=O)Nc2ccc(C(N)=O)c(F)c2)c(=O)cc1-c1cc(Cl)ccc1F (stereo not drawn) [Example 16]
